The record followed here is ChEMBL document CHEMBL1201862, “PubChem BioAssay data set” (2004).

Some test systems named below: SN12C; SW-620; UACC-257; HCC 2998; MOLT-4; EKVX; COLO 205; SK-MEL-5; CAKI-1; NCI-H522; XF498; OVCAR-3; ACHN; HT-29; MDA-MB-231; PC-3; BT-549; NCI/ADR-RES; DU-145; NCI-H226.
Experiment in all cases: inhibition of tumour cell growth, NCI panel, 48 h

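Compound exposure: 48 hours, 5 concentrations, 96-well plates. GI50 = concentration required for 50% inhibition of growth.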 Calls of active or inactive are those of the source. No stated cut-off is given here; in the data, active = GI50 up to about 1.1 µM and inactive = higher. Some results are limits rather than exact numbers.

As for `CC1=C(Oc2ccccc2)C(CCC(=O)O)c2c(O)cc(Cl)c(O)c21` (configuration not stated), the GI50 in the experiment on SN12C was > 100 µM (inactive); in the experiment on SW-620, > 100 µM (inactive); with UACC-257, > 100 µM (inactive); with HCC 2998, > 100 µM (inactive); in the experiment with MOLT-4, > 100 µM (inactive); in the experiment on EKVX, 71.9 µM (inactive). The GI50 in the experiment with COLO 205, with SK-MEL-5, with CAKI-1, with NCI-H522, with XF498 and with OVCAR-3 was > 100 µM (inactive) each time.
For the molecule `CCCc1onc(CCC(=O)N(Cc2ccccc2)Cc2ccccc2)c1CC`, the GI50 with ACHN, with SN12C, in the experiment with UACC-257, in the experiment with HCC 2998, with MOLT-4 and in the experiment with HT-29 was > 100 µM (inactive) each time. The GI50 in the experiment with COLO 205, in the experiment on CAKI-1, in the experiment with NCI-H522, in the experiment on XF498 and in the experiment with OVCAR-3 was > 100 µM (inactive) throughout.
As for `CCOC(=O)C(NC(=O)c1ccccc1)(Nc1ccc(S(=O)(=O)Nc2cc(C)on2)cc1)C(F)(F)F` (configuration not stated), the GI50 was > 100 µM (inactive) in the experiment on ACHN; > 100 µM (inactive) in the experiment on SN12C; > 100 µM (inactive) in the experiment on SW-620; > 10 µM (inactive) in the experiment on UACC-257; > 100 µM (inactive) with HCC 2998; > 100 µM (inactive) in the experiment with MDA-MB-231. Besides, the GI50 with PC-3, in the experiment on BT-549, with NCI/ADR-RES, with MOLT-4, with HT-29 and with EKVX was > 100 µM (inactive) in each case. Also, the GI50 in the experiment with COLO 205, in the experiment with SK-MEL-5, with DU-145, in the experiment with CAKI-1, in the experiment with NCI-H522 and with OVCAR-3 was > 100 µM (inactive) throughout. For the same molecule, the GI50 in the experiment with NCI-H226 was > 100 µM (inactive).
As to `Cc1cc(C)nc(NS(=O)(=O)c2ccc(Nc3c4ccccc4nc4c(C(=O)N5CCN(CCOS(C)(=O)=O)CC5)ccc(Cl)c34)cc2)n1`, the GI50 in the experiment with ACHN, with SN12C, in the experiment with UACC-257, in the experiment on HCC 2998, in the experiment with MOLT-4 and with HT-29 was > 100 µM (inactive) in each case. Also, the GI50 with COLO 205, in the experiment with SK-MEL-5, in the experiment with CAKI-1, with XF498, with OVCAR-3 and in the experiment with NCI-H226 was > 100 µM (inactive) in each case.
Consider `CCN(CC)CCSc1nc2cccc([N+](=O)[O-])c2[nH]1`, for which the GI50 with SN12C, in the experiment with SW-620, in the experiment on UACC-257, in the experiment on HCC 2998, in the experiment with MOLT-4 and in the experiment on HT-29 was > 100 µM (inactive) in each case. In addition, the GI50 in the experiment on EKVX, in the experiment on COLO 205, in the experiment on SK-MEL-5, in the experiment with CAKI-1, in the experiment on NCI-H522 and with XF498 was > 100 µM (inactive) each time. Moreover, the GI50 in the experiment on OVCAR-3 and in the experiment on NCI-H226 was > 100 µM (inactive) each time.
For `Oc1cccc2c(Cl)ccnc12`, the GI50 was 1.99 µM (inactive) in the experiment on ACHN; 1.2 µM (inactive) in the experiment with SN12C; 0.778 µM (active) in the experiment on SW-620; 3.1 µM (inactive) in the experiment with UACC-257; 4.43 µM (inactive) in the experiment on HCC 2998; 1.13 µM (inactive) in the experiment with MDA-MB-231. Moreover, the GI50 was 1.67 µM (inactive) in the experiment on PC-3; 13.7 µM (inactive) in the experiment on BT-549; 2.3 µM (inactive) in the experiment with NCI/ADR-RES; 0.376 µM (active) with MOLT-4; 9.51 µM (inactive) in the experiment with HT-29; 11.7 µM (inactive) in the experiment with EKVX. Moreover, the GI50 is 14.3 µM (inactive) with COLO 205; 1.22 µM (inactive) in the experiment on SK-MEL-5; 5.51 µM (inactive) in the experiment with DU-145; 2.39 µM (inactive) in the experiment with CAKI-1; 0.741 µM (active) in the experiment on NCI-H522; 0.287 µM (active) with OVCAR-3. For the same molecule, the GI50 in the experiment on NCI-H226 was 7.45 µM (inactive).
`Cc1nc(O)nc2nc3ccc(Cl)cc3c(NC(C)(CO)CO)c12`: the GI50 is 39 µM (inactive) with ACHN; > 100 µM (inactive) in the experiment with SN12C; > 100 µM (inactive) in the experiment with SW-620; > 75.3 µM (inactive) with UACC-257; > 100 µM (inactive) in the experiment on HCC 2998; 31.6 µM (inactive) in the experiment on MDA-MB-231. The GI50 in the experiment with PC-3 is 57.9 µM (inactive); in the experiment with BT-549, 62.8 µM (inactive); with NCI/ADR-RES, > 100 µM (inactive); with MOLT-4 it was > 40.8 µM (inactive); in the experiment on HT-29, > 100 µM (inactive); with EKVX, 24.9 µM (inactive). The GI50 is > 100 µM (inactive) in the experiment with COLO 205; > 60 µM (inactive) with SK-MEL-5; > 70.1 µM (inactive) with DU-145; 13.9 µM (inactive) in the experiment with CAKI-1; 24.2 µM (inactive) with NCI-H522; > 61.2 µM (inactive) in the experiment with OVCAR-3. Moreover, in the experiment on NCI-H226, the GI50 was > 84.5 µM (inactive).
As for `Cc1cc(N(CCC#N)CCC#N)ccc1/C=C(\NC(=O)/C=C/c1ccccc1)NC(=O)Nc1ccccc1C`, the GI50 is 55.3 µM (inactive) with ACHN; 77.3 µM (inactive) in the experiment on SN12C; > 100 µM (inactive) in the experiment with SW-620; > 100 µM (inactive) with UACC-257; > 100 µM (inactive) in the experiment with HCC 2998; > 100 µM (inactive) in the experiment with MOLT-4. For the same molecule, the GI50 in the experiment on HT-29 is > 100 µM (inactive); in the experiment with EKVX, 86.1 µM (inactive); in the experiment on COLO 205 it was > 100 µM (inactive); with SK-MEL-5 it was 61 µM (inactive); in the experiment with CAKI-1 it was 69.7 µM (inactive); in the experiment on XF498, > 10 µM (inactive). In addition, the GI50 in the experiment with OVCAR-3 was > 100 µM (inactive); in the experiment with NCI-H226, 22.6 µM (inactive).
As for `O=C1C(Cl)N(c2c(Cl)cccc2Cl)C1c1c[nH]c2ccccc12` (configuration not stated), the GI50 in the experiment on SN12C, in the experiment with SW-620, in the experiment on UACC-257, in the experiment on MOLT-4, in the experiment with HT-29 and with EKVX was > 100 µM (inactive) throughout. For the same molecule, the GI50 with COLO 205, in the experiment with SK-MEL-5, with NCI-H522, in the experiment on XF498 and in the experiment on OVCAR-3 was > 100 µM (inactive) in each case.
Consider `COc1cc(CCc2ccc(OCCN(C)C)cc2)cc(OC)c1OC`, for which the GI50 in the experiment with ACHN is > 100 µM (inactive); with SN12C, > 100 µM (inactive); with SW-620 it was > 100 µM (inactive); with UACC-257, 72.4 µM (inactive); in the experiment on MOLT-4, 32.6 µM (inactive); in the experiment with HT-29, 34.2 µM (inactive). The GI50 in the experiment with EKVX is > 100 µM (inactive); in the experiment with COLO 205 it was 20.3 µM (inactive); with SK-MEL-5 it was 24.1 µM (inactive); with CAKI-1, > 100 µM (inactive); in the experiment on NCI-H522, 83.8 µM (inactive); with XF498 it was 38.5 µM (inactive). The GI50 in the experiment on OVCAR-3 was 64.1 µM (inactive); in the experiment with NCI-H226 it was 79.6 µM (inactive).
For the molecule `Clc1ccc(-c2nn3c(COc4ccc(OCc5nnc6sc(-c7ccc(Cl)cc7)nn56)c(Cl)c4)nnc3s2)cc1`, the GI50 was 44.2 µM (inactive) in the experiment on ACHN; > 100 µM (inactive) in the experiment with SN12C; 24 µM (inactive) with SW-620; 44.7 µM (inactive) with UACC-257; 20.2 µM (inactive) in the experiment on HCC 2998; 32.2 µM (inactive) with MDA-MB-231. In addition, the GI50 in the experiment on PC-3 is 31 µM (inactive); in the experiment with BT-549, 18.9 µM (inactive); in the experiment with NCI/ADR-RES, 27.7 µM (inactive); with MOLT-4, 20.5 µM (inactive); with HT-29, 17.5 µM (inactive); in the experiment on EKVX, 27 µM (inactive). Also, the GI50 in the experiment on COLO 205 is 57.8 µM (inactive); with SK-MEL-5, 20.9 µM (inactive); in the experiment with DU-145, 37.5 µM (inactive); in the experiment with CAKI-1, 21.6 µM (inactive); with NCI-H522, 15.6 µM (inactive); in the experiment on OVCAR-3, 45.4 µM (inactive). Moreover, the GI50 in the experiment with NCI-H226 was 74.5 µM (inactive).
Turning to `COc1cc(/C=C/C(=N\NC(N)=S)c2sc(NNC(C)=O)nc2C)ccc1O`, the GI50 in the experiment on ACHN, in the experiment with SN12C, with SW-620, in the experiment with UACC-257, in the experiment with HCC 2998 and with MDA-MB-231 was > 100 µM (inactive) in each case. Also, the GI50 in the experiment on PC-3, with BT-549, in the experiment with NCI/ADR-RES, in the experiment on MOLT-4, with HT-29 and in the experiment on EKVX was > 100 µM (inactive) each time. The GI50 in the experiment with COLO 205, with SK-MEL-5, with DU-145, in the experiment with CAKI-1, with NCI-H522 and in the experiment with OVCAR-3 was > 100 µM (inactive) throughout. The GI50 with NCI-H226 was > 100 µM (inactive).
For `Oc1cc(-c2cccc3ccccc23)nc2ncccc12`, the GI50 in the experiment on ACHN was 0.0325 µM (active); with SN12C, 0.09 µM (active); in the experiment with SW-620, 0.0344 µM (active); in the experiment with UACC-257, 0.00152 µM (active); in the experiment on HCC 2998 it was 0.0745 µM (active); with MDA-MB-231, 0.172 µM (active). Moreover, the GI50 was 0.0182 µM (active) in the experiment with PC-3; 0.938 µM (active) in the experiment with BT-549; 0.0206 µM (active) with NCI/ADR-RES; 0.0506 µM (active) in the experiment with MOLT-4; 0.0173 µM (active) in the experiment with HT-29; 0.0948 µM (active) with EKVX. Further, the GI50 was 0.0154 µM (active) with COLO 205; 0.0021 µM (active) in the experiment with SK-MEL-5; 0.0418 µM (active) with DU-145; 0.0242 µM (active) in the experiment on CAKI-1; 0.0201 µM (active) with NCI-H522; 0.00457 µM (active) with OVCAR-3. In addition, the GI50 with NCI-H226 is 0.0339 µM (active).
